“Also recorded” adds a separate entry of the source.
How the values were obtained:
HCT116/OxR cells = assay: MTT-based cell viability assay, 72 h; design: species or system human
Description: Cell models were seeded (2–2.5 × 10^3 cells per well) in 96-well plates. After 24 h of recovery, the compounds were applied at the concentrations indicated in triplicate. Cell viability was determined after 72 h of continuous drug incubation using an MTT-based cell viability assay (EZ4U, Biomedica, Vienna, Austria) according to the manufacturer's recommendations. Absorbance was measured at 450 nm (vs. 620 nm as reference) using a multimode microplate reader (Tecan Spark, Zurich, Switzerland). Half-maximal inhibitory concentrations (IC50 values) were derived via interpolation from dose–response curves, modeled with the four-parameter logistic (4PL) nonlinear regression model in GraphPad Prism (La Jolla, CA, USA) from at least three independent experiments.

[1] = Hematological analysis 24 h after the second dose; conditions: 24 h after second dose; for anemia: two i.v. doses equimolar to 9 mg kg^−1 oxaliplatin
Description: Mice were kept in groups of four per cage with sterilized paper-based environmental enrichment and food and water ad libitum, under pathogen-free conditions and a controlled environment with a 12 h light–dark cycle. Syngeneic models of colorectal carcinoma were generated via subcutaneous injection of CT-26 cells (0.5 × 10^6 cells in 50 μL of serum-free RPMI-1640 medium) into the right flank of 8–12 weeks old BALB/c mice. […] All animals were euthanized 24 h after the second dose. […] To determine the anticancer efficacy of the investigated compounds, treatment started 4 d after tumor implantation, when all tumors were measurable (>25 mm^3) using a twice-weekly treatment scheme for two weeks. Tumor size was determined daily via manual caliper measurement. The tumor volume was calculated as tumor volume = (length × diameter × diameter)/2. The overall condition, shape, and activity of the animals were assessed daily. Peripheral blood was collected from the submandibular vein in K3E K3EDTA tubes (Greiner Bio-One; Kremsmünster, AUT) on ice and was analyzed for hematological parameters (red blood cells (RBCs), hemoglobin (HGB), hematocrit (HCT), red cell distribution width (RDW), mean corpuscular volume (MCV), white blood cells (WBCs), lymphocytes (LYM), monocytes (MO), granulocytes (GRA), and platelets (PLT) using a Vet ABC hematology analyzer (scil Animal Care GmbH, Viernheim, Germany). EDTA-blood was centrifuged (900g, 10 min) twice and the supernatant (EDTA-plasma) was stored at −20 °C for subsequent cytokine/chemokine analysis using a Luminex detection platform. All animal experiments were performed with humane endpoints based on Federation of European Laboratory Animal Science Associations guidelines and according to the regulations of the Ethics Committee for the Care and Use of Laboratory Animals at the Medical University Vienna (proposal number BMBWF 2023–0.122.324). Animals were euthanized upon reaching a tumor volume of >1500 mm^3, a loss in body weight (>20%), tumor ulceration or other indications of deteriorated health. Animals were euthanized via cervical dislocation.

[2] = system: NF-κB pathway (STING-dependent); assay: NF-κB-inducible SEAP reporter in THP1-Dual reporter cell model; assay type: cell-based, human; conditions: for NF-κB %EMAX of MSA-2: maximal response relative to MSA-2; for EC50: 24 h exposure, normalized to cell viability, oxaliplatin in combinations 5 μM
Text: (§1) The THP1-Dual™ reporter cell model for simultaneously monitoring the activity of the IRF and NF-κB pathway contains an IRF-inducible luciferase reporter under the control of an ISG54 minimal promoter in conjunction with five interferon (IFN)-stimulated response elements, and an induced SEAP driven by an IFN-β minimal promoter fused to five copies of the NF-κB consensus transcriptional response element and three copies of the c-Rel binding site. The luciferase and SEAP reporter are measurable in the cell culture supernatant using QUANTI-Luc™ 4 Lucia/Gaussia (InvivoGen) and QUANTI-Blue™ (InvivoGen) solution, respectively. Cells were seeded at 1 × 10^5 cells per well in 96-well plates in RPMI-1640 medium, supplemented with 10% FCS, L-glutamine and Pen-Strep. After 2 h of recovery, the compounds were applied at the concentrations indicated in triplicate. The cell culture supernatant (SN) was collected after 24 h of drug incubation and secreted luciferase and SEAP reporter levels were measured according to the manufacturer's recommendations. In brief, for the detection of luciferase, 20 μL of SN were transferred into 96-well white opaque plates, and 30 μL of QUANTI-Luc™ reagent were added per well using an injector module in a multimode microplate reader (Tecan Spark, Zurich, Switzerland). Luminescence was recorded at a reading time of 0.1 second. For the detection of SEAP, 10 μL of SN were transferred to 96-well plates and 90 μL of QUANTI-Blue™ were added per well. Absorbance was measured at 620 nm. Half-maximal effective concentrations (EC50 values) were derived via interpolation from dose–response curves, modeled with the four-parameter logistic (4PL) nonlinear regression model in GraphPad Prism. For comparison, the maximal response rate of the prodrug was depicted in the percent of the maximal response rate achieved by SR-717 or MSA-2 (%EMAX) at the respective concentrations tested. Activatability, tested in co-incubation experiments with AA (50 μM), was expressed as the area under the curve (AUC) ratio of +AA vs. −AA-treated cells. The STING-dependency of the reporter induction was tested by co-administration of the STING inhibitor H-151 (10 μM), added to the cell culture medium 2 h before applying the investigated compounds. In addition to monitoring secreted reporter levels, the cell viability of the reporter cells was determined after 24 h of drug treatment by an MTT-based cell viability assay.

[3] = system: IRF pathway (STING-dependent); assay: IRF-inducible luciferase reporter in THP1-Dual reporter cell model; assay type: cell-based, human; conditions: for IRF %EMAX of MSA-2: maximal response relative to MSA-2, highest tested dose 100 μM; for EC50: 24 h exposure, normalized to cell viability, oxaliplatin in combinations 5 μM
Text: as §1

[4] = Platinum distribution study in vivo by ICP-MS; design: species or system CT-26 tumor-bearing BALB/c mice; conditions: i.v., 24 h after second dose; for serum platinum levels: two doses
Description: (§2) Tumor size was determined daily via manual caliper measurement. […] Animals were euthanized via cervical dislocation.
The generation and treatment of tumor-bearing mice are outlined in the section “In vivo syngraft experiments” described above. Mouse tissues were processed as described previously.[13] Briefly, serum was isolated from peripheral blood by centrifugation (900g, 10 min, 4 °C, twice). Tissues were digested in 20% nitric acid and hydrogen peroxide using an open-vessel graphite digestion system. The platinum concentration was determined by ICP-MS analysis; for details see “Intracellular platinum accumulation in vitro by ICP-MS”.

CT-26 tumors = assay: Anticancer efficacy in vivo, syngeneic colorectal carcinoma; design: species or system BALB/c mice
Description: as §2

Compound | resistance factor (IC50 ratio HCT116/OxR vs parental HCT116) (HCT116/OxR cells) | anemia [1] | NF-κB EC50 ratio fold MSA-2 ([2]; 24 h) | NF-κB %EMAX of MSA-2 ([2]; 24 h) | EC50 [2] | IRF EC50 ratio fold MSA-2 ([3]; 24 h) | IRF %EMAX of MSA-2 ([3]; 24 h) | EC50 [3] | liver platinum level relative to tumor ([4]; two doses equimolar to 9 mg kg^−1 oxaliplatin) | serum platinum levels [4] | tumor volume (CT-26 tumors; peritumoral (p.t.) application, identical doses as i.v.) | IC50 (HCT116/OxR cells; without AA) | red blood cell counts (RBCs), hematocrit (HCT), red cell distribution width (RDW) [1] | activation of NF-κB signaling pathway ([2]; 24 h) | activation of IRF signaling pathway ([3]; 24 h) | tumor growth (CT-26 tumors; i.v. twice a week for two weeks, equimolar to 9 mg kg^−1 oxaliplatin) | impact of reducing conditions on IRF-induced reporter signal (AUC ratio +AA/−AA) ([3]; AA 50 μM)
COCCOCCOCCOCCNC(=O)[O][Pt-2]12([O]C(=O)CCC(=O)c3cc4cc(OC)c(OC)cc4s3)([NH2+][C@@H]3CCCC[C@H]3[NH2+]1)[O]C(=O)C(=O)[O]2 [Ox-MSA-PEG-Ca, (OC-6-34)-[(1R,2R)-1,2-cyclohexanediamino]-oxalato-[4-(5,6-dimethoxybenzo[b]thiophen-2-yl)-4-oxobutylcarboxylato]-[3,6,9,12-tetraoxatridecan-1-amino]platinum(IV)] | 2.7 fold | not | 3.1 fold | 24% | 55.4 µM | 6.3 fold | 68% | 57.8 µM | 9.7 fold | Low serum platinum levels | robust and significant decrease in the tumor volume; also recorded: distinct anticancer activity | – | – | – | – | – | –
O=C1[O][Pt]2([NH][C@@H]3CCCC[C@H]3[NH]2)[O]C1=O [oxaliplatin, reference compound] | – | anemia | – | – | – | – | – | – | – | Low serum platinum levels | – | 27.5 µM | clearly lowered | did not induce observable activation | did not induce observable activation | clearly reduced tumor growth | –
COCCOCCOCCOCCC(=O)[O][Pt-2]12([O]C(=O)CCC(=O)c3cc4cc(OC)c(OC)cc4s3)([NH2+][C@@H]3CCCC[C@H]3[NH2+]1)[O]C(=O)C(=O)[O]2 [Ox-MSA-PEG-Es, (OC-6-44)-[(1R,2R)-1,2-cyclohexanediamino]-oxalato-[4-(5,6-dimethoxybenzo[b]thiophen-2-yl)-4-oxobutylcarboxylato]-[2,5,8,11-tetraoxatetradecanoato]platinum(IV)] | > 3.1 fold | – | > 5.7 fold | 15% | > 100 µM | 8.6 fold | 24% | 78.8 µM | – | – | – | – | – | – | – | – | significantly enhanced
